Measured values as given in publication PMC4867112 (Biochemistry, 2016).
Values belong to the molecule of their own block, whether it stands above or below them.

Experiments:
DREAM(Δ64) = biological target: T1, DREAM(Δ64) (Mus musculus, UniProt Q9QXT8); assay: Tb3+ luminescence decay titration; assay type: binding
T1 sequence (Q9QXT8 65-256): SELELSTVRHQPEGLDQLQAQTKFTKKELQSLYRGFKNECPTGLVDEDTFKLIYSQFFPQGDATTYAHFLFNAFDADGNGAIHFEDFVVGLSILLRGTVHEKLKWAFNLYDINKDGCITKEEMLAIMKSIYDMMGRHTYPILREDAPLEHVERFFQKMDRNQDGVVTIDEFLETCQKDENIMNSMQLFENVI

[1] = biological target: the molecule itself; assay: fluorescence anisotropy decay

Kd (DREAM(Δ64)): ~37 µM
Molecule: O=C(Nc1cc(C(F)(F)F)cc(C(F)(F)F)c1)Nc1c(Br)cc(Br)cc1-c1nn[nH]n1 [NS5806, 1-[2,4-dibromo-6-(1H-tetrazol-5-yl)-phenyl]-3-(3,5-bis-trifluoromethyl-phenyl)urea]

B1: DREAM(Δ64), mouse DREAM (downstream regulatory element antagonist modulator) construct lacking residues 1–64 (domain or fragment, UniProt Q9QXT8 65-256, looked up)
chain: T1 sequence (Q9QXT8 65-256)
stoichiometry N [1]: 2
